Measurements from patent US9328106B2, “Cyclic ether pyrazol-4-yl-heterocyclyl-carboxamide compounds and methods of use” (Genentech, Inc., priority 2012, dated 2016).

What follows are compounds tested against PIM1 (Homo sapiens (Human), UniProt P11309) (assay: biochemical). Conditions: 20 pM PIM1, 1 μM FAM-peptide, 10 μM ATP, 90 minutes at room temperature; read-out: PIM1 LC3K (KI).
Type: biochemical

Sequence of PIM1 (P11309 whole entry): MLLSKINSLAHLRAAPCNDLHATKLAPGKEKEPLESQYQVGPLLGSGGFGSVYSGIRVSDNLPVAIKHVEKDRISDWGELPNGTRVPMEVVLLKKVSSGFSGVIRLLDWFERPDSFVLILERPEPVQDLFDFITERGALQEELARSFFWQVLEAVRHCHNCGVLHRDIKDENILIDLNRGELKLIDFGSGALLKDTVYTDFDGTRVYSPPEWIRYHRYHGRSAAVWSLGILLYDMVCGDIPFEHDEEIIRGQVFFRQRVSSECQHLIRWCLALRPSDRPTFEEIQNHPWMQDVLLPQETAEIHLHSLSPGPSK

Row | Compound | Ki
1 | CO[C@H]1CO[C@H](c2c(NC(=O)c3nc(-c4cccc(F)c4F)sc3N)cnn2C)CC[C@H]1N [Example 219, 5-amino-N-(5-((2S,5R,6R)-5-amino-6-methoxyoxepan-2-yl)-1-methyl-1H-pyrazol-4-yl)-2-(2,3-difluorophenyl)thiazole-4-carboxamide] | 0.05 nM
2 | Cn1ncc(NC(=O)c2nc(-c3cnn(C)c3C(F)(F)F)sc2N)c1[C@@H]1CC[C@@H](N)[C@H](F)CO1 [Example 282, 5-amino-N-(5-((2S,5R,6S)-5-amino-6-fluorooxepan-2-yl)-1-methyl-1H-pyrazol-4-yl)-2-(1-methyl-5-(trifluoromethyl)-1H-pyrazol-4-yl)thiazole-4-carboxamide] | 0.058 nM
3 | Cn1ncc(NC(=O)c2nc(-c3c(F)cccc3C(F)(F)F)sc2N)c1[C@@H]1CC[C@@H](N)[C@@H](F)CO1 [Example 278, 5-amino-N-(5-((2S,5R,6R)-5-amino-6-fluorooxepan-2-yl)-1-methyl-1H-pyrazol-4-yl)-2-(2-fluoro-6-(trifluoromethyl)phenyl)thiazole-4-carboxamide] | 0.061 nM
4 | C[C@@H](O)c1cc(F)c(-c2nc(C(=O)Nc3cnn(C)c3[C@@H]3CC[C@@H](N)[C@H](F)CO3)cs2)c(F)c1 [Example 304, N-(5-((2S,5R,6S)-5-amino-6-fluorooxepan-2-yl)-1-methyl-1H-pyrazol-4-yl)-2-(2,6-difluoro-4-((R)-1-hydroxyethyl)phenyl)thiazole-4-carboxamide] | 0.014 nM
5 | Cn1ncc(NC(=O)c2csc(-c3ccccc3F)n2)c1[C@@H]1CC[C@@H](N)[C@@H](F)CO1 [Example 318, N-(5-((2S,5R,6R)-5-amino-6-fluorooxepan-2-yl)-1-methyl-1H-pyrazol-4-yl)-2-(2-fluorophenyl)thiazole-4-carboxamide] | 0.098 nM
6 | Cn1ncc(NC(=O)c2nc(-c3c(F)cccc3F)sc2N)c1[C@@H]1CC[C@@H](CN)O1 [Example 172, 5-Amino-N-[5-[(2S,5S)-5-(aminomethyl)tetrahydrofuran-2-yl]-1-methyl-pyrazol-4-yl]-2-(2,6-difluorophenyl)thiazole-4-carboxamide] | 0.15 nM
7 | Cn1ncc(NC(=O)c2nc(-c3cc(F)cc(F)c3F)sc2N)c1[C@@H]1CC[C@@H](N)[C@@H](F)CO1 [Example 261, 5-amino-N-(5-((2S,5R,6R)-5-amino-6-fluorooxepan-2-yl)-1-methyl-1H-pyrazol-4-yl)-2-(2,3,5-trifluorophenyl)thiazole-4-carboxamide] | 0.037 nM
8 | Cn1ncc(NC(=O)c2nc(-c3cccc(F)c3Cl)sc2N)c1[C@@H]1CC[C@@H](N)[C@H](F)CO1 [Example 337, 5-amino-N-(5-((2S,5R,6S)-5-amino-6-fluorooxepan-2-yl)-1-methyl-1H-pyrazol-4-yl)-2-(2-chloro-3-fluorophenyl)thiazole-4-carboxamide] | 0.015 nM
9 | CO[C@H]1CO[C@H](c2c(NC(=O)c3csc(-c4c(F)ccc(F)c4F)n3)cnn2C)CC[C@H]1N [Example 258, N-(5-((2S,5R,6R)-5-amino-6-methoxyoxepan-2-yl)-1-methyl-1H-pyrazol-4-yl)-2-(2,3,6-trifluorophenyl)thiazole-4-carboxamide] | 0.145 nM
10 | Cn1ncc(NC(=O)c2nc(-c3ccncc3F)sc2N)c1[C@@H]1CC[C@@H](N)[C@@H](F)CO1 [Example 182, 5-Amino-N-[5-[(2S,5R,6R)-5-amino-6-fluoro-oxepan-2-yl]-1-methyl-pyrazol-4-yl]-2-(3-fluoro-4-pyridyl)thiazole-4-carboxamide] | 0.051 nM
11 | Cn1ncc(NC(=O)c2csc(-c3cccc(F)c3Cl)n2)c1[C@@H]1CC[C@@H](N)[C@H](F)CO1 [Example 309, N-(5-((2S,5R,6S)-5-amino-6-fluorooxepan-2-yl)-1-methyl-1H-pyrazol-4-yl)-2-(2-chloro-3-fluorophenyl)thiazole-4-carboxamide] | 0.274 nM
12 | Cn1ncc(NC(=O)c2nc(-c3cccc(C(F)(F)F)c3F)sc2N)c1[C@@H]1CC[C@@H](N)[C@@H](F)CO1 [Example 268, 5-amino-N-(5-((2S,5R,6R)-5-amino-6-fluorooxepan-2-yl)-1-methyl-1H-pyrazol-4-yl)-2-(2-fluoro-3-(trifluoromethyl)phenyl)thiazole-4-carboxamide] | 0.028 nM
13 | Cn1ncc(NC(=O)c2nc(-c3c(F)cccc3F)sc2N)c1C1CCC(O)CCO1 (stereo not drawn) [Example 134, 5-amino-2-(2,6-difluorophenyl)-N-[5-(5-hydroxyoxepan-2-yl)-1-methyl-pyrazol-4-yl]thiazole-4-carboxamide] | 0.054 nM
14 | Cn1ncc(NC(=O)c2csc(-c3c(F)cc(C4(O)COC4)cc3F)n2)c1[C@@H]1CC[C@@H](N)[C@H](F)CO1 [Example 224, N-(5-((2S,5R,6S)-5-amino-6-fluorooxepan-2-yl)-1-methyl-1H-pyrazol-4-yl)-2-(2,6-difluoro-4-(3-hydroxyoxetan-3-yl)phenyl)thiazole-4-carboxamide] | 0.035 nM
15 | Cn1ncc(NC(=O)c2ccc(F)c(-c3c(F)cc(C(C)(C)O)cc3F)n2)c1[C@@H]1CC[C@@H](N)[C@@H](F)CO1 [Example 289, N-(5-((2S,5R,6R)-5-amino-6-fluorooxepan-2-yl)-1-methyl-1H-pyrazol-4-yl)-6-(2,6-difluoro-4-(2-hydroxypropan-2-yl)phenyl)-5-fluoropicolinamide] | 0.08 nM
16 | Cn1ncc(NC(=O)c2nc(-c3c(F)cccc3F)sc2N)c1C1CC(F)(F)CC(N)CO1 (stereo not drawn) [Example 132, 5-amino-N-[5-(6-amino-4,4-difluoro-oxepan-2-yl)-1-methyl-pyrazol-4-yl]-2-(2,6-difluorophenyl)thiazole-4-carboxamide] | 0.014 nM
17 | Cn1ncc(NC(=O)c2csc(-c3c(F)cc(C(C)(F)F)cc3F)n2)c1[C@@H]1CC[C@@H](N)[C@H](F)CO1 [Example 394, N-(5-((2S,5R,6S)-5-amino-6-fluorooxepan-2-yl)-1-methyl-1H-pyrazol-4-yl)-2-(4-(1,1-difluoroethyl)-2,6-difluorophenyl)thiazole-4-carboxamide] | 0.018 nM
18 | Cn1ncc(NC(=O)c2nc(-c3c(F)cccc3F)sc2N)c1C1CC(F)(F)CC(N)CO1 (stereo not drawn) [Example 133, 5-amino-N-[5-(6-amino-4,4-difluoro-oxepan-2-yl)-1-methyl-pyrazol-4-yl]-2-(2,6-difluorophenyl)thiazole-4-carboxamide] | 0.076 nM
19 | Cn1ncc(NC(=O)c2nc(C3CCCC3)sc2N)c1[C@@H]1CC[C@@H](N)[C@@H](F)CO1 [Example 272, 5-amino-N-(5-((2S,5R,6R)-5-amino-6-fluorooxepan-2-yl)-1-methyl-1H-pyrazol-4-yl)-2-cyclopentylthiazole-4-carboxamide] | 0.992 nM
20 | Cc1ccc(F)c(-c2nc(C(=O)Nc3cnn(C)c3[C@@H]3CC[C@@H](N)[C@H](F)CO3)cs2)c1 [Example 238, N-(5-((2S,5R,6S)-5-amino-6-fluorooxepan-2-yl)-1-methyl-1H-pyrazol-4-yl)-2-(2-fluoro-5-methylphenyl)thiazole-4-carboxamide] | 0.048 nM
21 | Cn1ncc(NC(=O)c2csc(-c3c(F)cc(C4CCOC4)cc3F)n2)c1[C@@H]1CC[C@@H](N)[C@H](F)CO1 (stereo partly drawn) [Example 216, N-(5-((2S,5R,6S)-5-amino-6-fluorooxepan-2-yl)-1-methyl-1H-pyrazol-4-yl)-2-(2,6-difluoro-4-(tetrahydrofuran-3-yl)phenyl)thiazole-4-carboxamide] | 0.011 nM
